{
  "source": "patent US20040071718A1",
  "about": "“Local nasal immunotherapy for allergen-induced airway inflammation” (priority 2002, published 2004)",
  "assay_type_in_all_cases": "in vivo",
  "key": {"[1]": {"tested_on": "Balb/c mice", "experiment": "Leukocyte subpopulations in BALF of rDp2-sensitized mice after local nasal immunotherapy (LNIT)", "conditions": "BALF", "description": "Male Balb/c mice were obtained from the National Laboratory Breeding Research Center in Taiwan and were raised in a specific pathogen-free environment. The mice used were between six and eight weeks of age. Groups of six mice were caged separately according to their treatment. Recombinant Dermatophoides pteronyssinus group 2 (rDp2) was prepared as previously described(Tsai J J, et al. Int Arch Allergy Immunol 2000;121:205-10). Dp2 28-40 and Dp2 28-40A were obtained from Dr. Jonathan Lamb (Respiratory Medicine Unit, Edinburgh University, Medical School, Edinburgh, UK) (Verhoef A, and Lamb J R. J Immunol 2000;164:6034-6040). FIP was obtained from Dr. Ko Jiunn-Liang (Institute of Toxicology, Chung Shan Medical University, Taichung, R O C) (J L Ko, et al. Eur. J. Biochem. 1995;228:244-249).\n(§1) Mice were immunized by way of an intraperitoneal (IP) injection of 1 μg/0.1 mL rDp2 emulsified in 4.0 mg/0.062mL aluminum hydroxide Al(OH)3 (Whitehall Lab Ltd. Punchbowl, NSW, Australia) on day 0 and day 7. Following immunization, local nasal immunotherapy (LNIT) was conducted daily from day 14 to day 35 with Dp2 28-40, Dp2 28-40A, FIP alone or FIP mixed with either Dp2 28-40 or Dp2 28-40A (FIP, 50 μg/mouse/day; Dp2 peptide, 1 μg/20 μL) in PBS with 10% glycerol. Normal saline (NS) and irrelevant allergen Bt were used as a negative control. […] On day 28, mice were lightly anesthetized with an IP injection of 60 mg/kg of sodium pentobarbital (Sigma Chemical Co., St Louis, Mo., U.S.A.) and inoculated intratracheally (IT) with 1 μg/50 μL of rDp 2 on day 28 and day 35. Two days subsequent to the second IT inoculation, the mice were sacrificed following the assessment of their pulmonary function (FIG. 1).\nSubsequent to pulmonary function measurement having been completed, bronchoalveolar lavage (BAL) was performed using the following procedure. BAL fluids were collected with lmL sterile endotoxin-free saline washes of each lung via the trachea for each mouse. BAL cells were washed once with PBS by centrifugation at 200×g at 4° C. Subsequent to washing, the cells were resuspended in RPMI-1640 (Sigma Chemical Co.). The total leukocyte count in BAL fluids was determined using a hemocytometer. The BAL fluids were aspirated and stored at −70° C. until needed for assay purposes. Subsequent to total leukocyte counting, a cytospin preparation of 100 μL BAL fluids (2×10^5 cells/mL) was conducted, the cells being cytocentrifuged directly onto glass slides at 350 r.p.m. for five minutes using a Cytospin 3 cytocentrifuge (Shandon Scientific Limited, Astmoor, Runcorn, UK), and then stained with Liu stain (Tonyar Diagnostic Inc, Taipei & Hien, Taiwan). The differential counts were performed for a total of 200 leukocyte cells."}, "[2]": {"tested_on": "Balb/c mice", "experiment": "Cytokine producing cells in peripheral blood (flow cytometry) after LNIT", "conditions": "for IL-5/IFN-γ (CD4) / IL-5/IFN-γ (CD8): peripheral blood", "description": "(§2) Male Balb/c mice were obtained from the National Laboratory Breeding Research Center in Taiwan and were raised in a specific pathogen-free environment. The mice used were between six and eight weeks of age. Groups of six mice were caged separately according to their treatment.\nas §1\nTwo-color staining methods were used to analyze IFN-γ and IL-5 expression amongst CD4 cells. Leukocytes derived from peripheral blood (PBL) were stimulated with PMA (50 ng/mL), ionomycin (2 μM) and GolgiStop (Cytofix/Cytoperm Plus Pharmingen San Diego, Calif., U.S.A.) for five hours and then washed twice using PBS. The cells were stained with CD4-PerCP, CD8-FITC or IgG1-FITC (PharMingen) at room temperature (RT) for 30 minutes and then washed. Cells were fixed with cytofix/cytoperm at RT for 30 minutes and then stained with anti-cytokine antibody and IgG2a-PE (PharMingen) at RT for 30 minutes and subsequently washed. Both IgG1-FITC and IgG2a-PE were purchased from the same manufacturer as the anticytokine antibodies and the negative controls. Cells were resuspended in 0.5 mL PBS containing 0.1% w/v sodium azide. Mean fluorescence was measured by means of Becton Diskinson flow cytometry (Becton Diskinson, Calif., U.S.A.). A total of 2,000 cells was analyzed for each sample."}, "[3]": {"tested_on": "Balb/c mice", "experiment": "IL-5 and IFN-γ levels in sera and BALF (ELISA) after LNIT", "conditions": "Example 2, mean ± SEM, n = 6", "description": "as §2, §1\nIFN-γ and IL-5 were measured using commercially-available ELISA kits, using a specific mouse monoclonal Ab that recognized different epitopes of the cytokine molecules. The lowest detector range was 10 pg/mL. Given that the BALF was considered to be at too diluted a concentration, IL-4 was not measured."}, "[4]": {"conditions": "Example 1, LNIT day 14-35, rDp2 IT challenge, mean ± SEM of six animals"}, "[5]": {"conditions": "Example 2 (FIP study), mean ± SEN of six mice"}, "[6]": {"conditions": "Example 1, percentage of positive stained cells in the PBMC of six mice"}, "[7]": {"conditions": "Example 2, percentage of total leukocytes in the peripheral blood of six mice"}},
  "note": "Marks after values point to notes of the source that are not given here.",
  "data": [
    {"molecule": "C[C@@H]1C[C@H]2[C@@H]3CCC4=CC(=O)C=C[C@]4(C)[C@@]3(F)[C@@H](O)C[C@]2(C)[C@@]1(O)C(=O)CO", "note": "[DEX, Dexamethasone, reference compound]", "values": [
      {"measurement": "Eosinophil", "setting": "[1]; [4]", "result": "3.2 ± 0.4* 10^4 cells/mL"},
      {"measurement": "Lymphocyte", "setting": "[1]; [4]", "result": "9.4 ± 1.5* 10^4 cells/mL"},
      {"measurement": "Macrophage", "setting": "[1]; [4]", "result": "29.2 ± 4.4* 10^4 cells/mL"},
      {"measurement": "Neutrophil", "setting": "[1]; [4]", "result": "6.6 ± 1.0* 10^4 cells/mL"},
      {"measurement": "Total cell", "setting": "[1]; [4]", "result": "46.4 ± 2.2* 10^4 cells/mL"},
      {"measurement": "Eosinophil", "setting": "[1]; [5]", "result": "3.8 ± 0.5 ×10^4/mL"},
      {"measurement": "Lymphocyte", "setting": "[1]; [5]", "result": "15.3 ± 0.6 ×10^4/mL"},
      {"measurement": "Macrophage", "setting": "[1]; [5]", "result": "28.3 ± 1.7 ×10^4/mL"},
      {"measurement": "Neutrophil", "setting": "[1]; [5]", "result": "8.0 ± 0.8 ×10^4/mL"},
      {"measurement": "CD4^+", "setting": "[2]; [6]", "result": 45.6, "unit": "percentage"},
      {"measurement": "CD8^+", "setting": "[2]; [6]", "result": 7.0, "unit": "percentage"},
      {"measurement": "IFN-γ^+/CD4^+", "setting": "[2]; [6]", "result": 7.9, "unit": "percentage"},
      {"measurement": "IFN-γ^+/CD8^+", "setting": "[2]; [6]", "result": 7.9, "unit": "percentage"},
      {"measurement": "IL-5^+/CD4^+", "setting": "[2]; [6]", "result": 9.2, "unit": "percentage"},
      {"measurement": "IL-5^+/CD8^+", "setting": "[2]; [6]", "result": 8.2, "unit": "percentage"},
      {"measurement": "IL-5/IFN-γ (CD4)", "setting": "[2]; Example 1, ratio of IL-5 to IFN-γ producing CD4 cells", "result": 1.2},
      {"measurement": "IL-5/IFN-γ (CD8)", "setting": "[2]; Example 1, ratio of IL-5 to IFN-γ producing CD8 cells", "result": 1.0},
      {"measurement": "CD4", "setting": "[2]; [7]", "result": 51.2, "unit": "percentage"},
      {"measurement": "CD8", "setting": "[2]; [7]", "result": 7.9, "unit": "percentage"},
      {"measurement": "IFN-γ^+/CD4^+", "setting": "[2]; [7]", "result": 17.7, "unit": "percentage"},
      {"measurement": "IFN-γ^+/CD8^+", "setting": "[2]; [7]", "result": 14.1, "unit": "percentage"},
      {"measurement": "IL-5^+/CD4^+", "setting": "[2]; [7]", "result": 15.8, "unit": "percentage"},
      {"measurement": "IL-5^+/CD8^+", "setting": "[2]; [7]", "result": 14.1, "unit": "percentage"},
      {"measurement": "IL-5/IFN-γ (CD4)", "setting": "[2]; Example 2, ratio, CD4 cells", "result": 0.9},
      {"measurement": "IL-5/IFN-γ (CD8)", "setting": "[2]; Example 2, ratio, CD8 cells", "result": 1.0},
      {"measurement": "IFN-γ", "setting": "[3]; BALF", "result": "9.9 ± 0.6", "unit": "pg/mL"},
      {"measurement": "IL-5", "setting": "[3]; BALF", "result": "19.2 ± 1.2", "unit": "pg/mL"},
      {"measurement": "IFN-γ", "setting": "[3]; Sera", "result": "46.2 ± 3.4", "unit": "pg/mL"},
      {"measurement": "IL-5", "setting": "[3]; Sera", "result": "138.0 ± 16.6", "unit": "pg/mL"}
    ]}
  ]
}
